IC50 and Ki data for 14 molecules are collected here from ChEMBL document CHEMBL3120047, “Ligand bioactive conformation plays a critical role in the design of drugs that target the hepatitis C virus NS3 protease” (J Med Chem, 2014).

A short description of the test: Inhibition of HCV genotype 1b NS3/NS4A protease using DDIVPCSMSYTW as substrate by radiometric enzymatic assay. More on the design: species or system Hepatitis C virus subtype 1b.

pIC50, pKi: −log10 of the molar value. Non-standard residues stand in square brackets, D forms with d. Residues, ends and D or L forms follow the SMILES beside them. *: point of attachment. Hyp = O=C(O)[C@@H]1C[C@@H](O)CN1; Nva = CCC[C@H](N)C(=O)O; Bn = c1ccc(C*)cc1

The term pIC50 denotes the negative decadic logarithm of the IC50, by convention in mol/L. Lower therefore signals a large IC50. Usually pKi stands for the Ki on a negative log10 scale, so that one unit is a factor of ten. In the case of H-DDIVPC-OH, the negative-log IC50 (pIC50) is 4.15 and the pKi was 4.72.
Regarding `C=C[C@@H]1C[C@]1(NC(=O)[C@@H]1C[C@@H](Oc2cc(-c3ccccc3)nc3cc(OC)ccc23)CN1C(C)=O)C(=O)O`, the pKi was 4.55.
Still for that read-out and setting: the figure for `C=C[C@@H]1C[C@]1(NC(=O)[C@@H]1C[C@@H](Oc2cc(-c3ccccc3)nc3cc(OC)ccc23)CN1C(=O)CNC(=O)OC(C)(C)C)C(=O)O` is 5.52; for `COc1ccc2c(O[C@@H]3C[C@@H](C(=O)NCC(=O)O)N(C(=O)[C@@H](NC(=O)OC(C)(C)C)C(C)(C)C)C3)cc(-c3ccccc3)nc2c1` it is 4.25; for `C=C[C@@H]1C[C@]1(NC(=O)[C@@H]1C[C@@H](Oc2cc(-c3ccccc3)nc3cc(OC)ccc23)CN1C(=O)[C@@H](NC(=O)OC(C)(C)C)C(C)(C)C)C(=O)O` it is 7.70.
The same measure, in the same setting: as for `C=C[C@@H]1C[C@]1(NC(=O)[C@@H]1C[C@@H](Oc2ccnc3ccccc23)CN1C(=O)[C@@H](NC(=O)OC(C)(C)C)C(C)(C)C)C(=O)O`, the figure is 6.85.
The same measure, in the same setting: as for `C=C[C@@H]1C[C@]1(NC(=O)[C@@H]1CCCN1C(=O)[C@@H](NC(=O)OC(C)(C)C)C(C)(C)C)C(=O)O`, the figure is < 3.22; as for `C=C[C@@H]1C[C@]1(NC(=O)[C@@H]1C[C@@H](Oc2cc(-c3ccccc3)nc3cc(OC)ccc23)CN1C(=O)[C@H](C)NC(=O)OC(C)(C)C)C(=O)O`, 6.51.
Molecule `COc1ccc2c(O[C@@H]3C[C@@H](C(=O)NC4(C(=O)O)CC4)N(C(=O)[C@@H](NC(=O)OC(C)(C)C)C(C)(C)C)C3)cc(-c3ccccc3)nc2c1` had a pKi of 6.46.
Same read-out and setting: as for `C=C[C@@H]1C[C@]1(NC(=O)[C@@H]1C[C@@H](Oc2cccc3ccccc23)CN1C(=O)[C@@H](NC(=O)OC(C)(C)C)C(C)(C)C)C(=O)O`, the figure is 6.51; as for `C=C[C@@H]1C[C@]1(NC(=O)[C@@H]1C[C@@H](Oc2cc(-c3ccccc3)nc3cc(OC)ccc23)CN1C(=O)CC(C)(C)C)C(=O)O`, 5.80; as for `CCC[C@H](NC(=O)[C@@H]1C[C@@H](OCc2ccccc2)CN1C(=O)[C@@H](NC(=O)[C@@H](NC(=O)[C@H](CC(=O)O)NC(=O)[C@H](CC(=O)O)NC(C)=O)[C@@H](C)CC)C(C)C)C(=O)O` (Ac-DDIV[Hyp](Bn)[Nva]-OH), 5.72.
The same measure, in the same setting: as for `C=C[C@@H]1C[C@]1(NC(=O)[C@@H]1C[C@@H](Oc2ccccc2)CN1C(=O)[C@@H](NC(=O)OC(C)(C)C)C(C)(C)C)C(=O)O`, the figure is 4.54; as for `C=C[C@@H]1C[C@]1(NC(=O)[C@@H]1C[C@@H](Oc2ccncc2)CN1C(=O)[C@@H](NC(=O)OC(C)(C)C)C(C)(C)C)C(=O)O`, 4.54.
